Laboratory results published in patent US20040248806A1, “Compounds comprising an analgesic molecule linked to a vector that can vectorise said molecule through the hematoencephalic barrier and pharmaceutical compositions containing same” (priority 2001, published 2004).
Like-named read-outs stand apart in the source and are kept apart here. Non-standard residues stand in square brackets, D forms with d. Residues, ends and D or L forms follow the SMILES beside them. *: point of attachment. X1 = CN1CC[C@]23c4c5ccc(O)c4O[C@H]2[C@@H](O[C@@H]2O[C@H](C(=O)NCCS*)[C@@H](O)[C@H](O)[C@H]2O)C=C[C@H]3[C@H]1C5; Mpa = O=C(O)CCS

Legend:
[1] = Tail flick test; type: in vivo, mouse; settings: mice; for ED50: dose giving analgesic effect in 50% of the mice
Experimental: II.2. Assay Used: Tail Flick Test
a) Experimental Conditions
The mouse tail is placed in front of an infrared source. The light is focused on the ventral surface of the tail so as to produce a surface temperature of 55° C. As soon as the mouse moves the tail, the reaction time is then measured. The compounds studied are administered subcutaneously.
Three measurements are taken before administration of the product so as to have a baseline time. The percentage of mice in which analgesia has occurred is then represented by the number of mice having a reaction time which is at least double the baseline time divided by the total number of mice. The ED50 dose represents the concentration which gives 50% of mice in which analgesia has occurred.
[…]. We determined the ED50, which represents the dose which gives an analgesic effect in 50% of the mice in the “tail flick” model, for each product. […].

[2] = Respiratory depression (blood O2 saturation); type: in vivo, rat; settings: rats, subcutaneous; for effect on oxygen saturation (FIG. 5, B and C) / oxygen level (SO2): 5×ED50 and 10×ED50 doses; for oxygen level (SO2): between 30 and 90 min; for effect on O2 saturation (FIG. 5, A): ED50 dose
Experimental: The respiratory depression was calculated in rats. The product is injected into the animals subcutaneously and, after a certain amount of time, an aliquot of blood is taken from the femoral artery via a catheter implanted beforehand. During the study, the animals are placed in a calm place. After the blood sample has been taken, the oxygen saturation (SO2) and the CO2 pressure (PCO2) are measured. The SO2 values are measured in % O2.

[3] = biological target: μ1 receptor; assay: Receptor affinity, [3H]DADLE binding in calf thalamus homogenate; settings: [3H]DADLE 0.7 nM with 10 nM DPDPE
Experimental: (§1) Tissue homogenates are prepared from calf brains (thalamus for μ1 and μ2 and frontal cortex for delta). [^3H][D-Ala^2,D-Leu^5]enkephalin (DADLE) (0.7 nM) is incubated with 3 ml of tissue homogenate (15 mg of tissue per ml) in the presence of 10 nM of [D-Pen^2,D-Pen^5]enkephalin (DPDPE) and of increasing concentrations of free or vectorized M6G. Under these conditions, specific binding to μ1 binding sites is observed. For the μ2 receptor, [D-Ala^2, MePhe^4,Gly(ol)^5]enkephalin (DAMGO) (1 nM) is incubated with 3 ml of tissue homogenate in the presence of 5 nM [D-Ser2,Leu^5]enkephalin-Thr^6 (DSLET) and of increasing concentrations of free or vectorized M6G. For the delta receptor, the tissue is incubated with [^3H] [D-Pen^2,D-Pen^5]enkephalin in the presence of free or vectorized M6G. The nonspecific binding is determined by adding to the labeled ligands 1 μM of levallorphan.

[4] = biological target: T1, delta receptor (Bos taurus, UniProt F1N083); assay: Receptor affinity, [3H]DPDPE binding in calf frontal cortex homogenate
T1 construct: Tissue homogenates are prepared from calf brains; from tissue; host or cells: calf brain frontal cortex homogenate
Experimental: as §1

[5] = biological target: T2, μ2 receptor (Bos taurus, UniProt P79350); assay: Receptor affinity, DAMGO binding in calf thalamus homogenate; settings: DAMGO 1 nM with 5 nM DSLET
T2 construct: Tissue homogenates are prepared from calf brains; from tissue; host or cells: calf brain thalamus homogenate
Experimental: as §1

[6] = systemic injection; cited from earlier work
[7] = In situ brain perfusion (penetration through the BBB); type: in vivo; settings: mouse, perfusion of 60 seconds in buffer
Description: a) Experimental Conditions: In Situ Brain Perfusion
Mice (20-25 g, Iffa-Credo; l'Arbresle, France) are anesthetized. After exposure of the common carotid, the right external carotid artery is ligated at the level of the bifurcation with the internal carotid, and the common carotid is ligated between the heart and the site of the implantation of the catheter (polyethylene catheter, ID: 0.76). Said catheter, pre-filled with a heparin solution (100 units/ml) is inserted into the common carotid. The mice are perfused with a perfusion buffer (128 mM NaCl, 24 mM NaHCO3, 4.2 mM KCl, 2.4 mM NaH2PO4, 1.5 mM CaCl2, 0.9 mM MgSO4 and 9 mM D-glucose). This buffer is filtered and then a mixture containing 95% O2/5% CO2 is bubbled through in order to maintain the pH in the region of 7.4 and to supply the brain with oxygen during the perfusion.
The mice are perfused with the buffer containing the free M6G (compound 1: specific activity 84 mCi/mg) or the vectorized M6G (compound 2; specific activity 14.3 mCi/mg). Just before the start of the perfusion, the heart is stopped by sectioning the ventricles, in order to avoid reflux of the perfusate during the perfusion. The right hemisphere is then perfused at a rate of 10 ml/min for 60 seconds, after which time the mouse is decapitated. The amount of radioactivity in the right hemisphere is then measured and the brain penetration index (Kin) is calculated. […]

T2 sequence (P79350 whole entry): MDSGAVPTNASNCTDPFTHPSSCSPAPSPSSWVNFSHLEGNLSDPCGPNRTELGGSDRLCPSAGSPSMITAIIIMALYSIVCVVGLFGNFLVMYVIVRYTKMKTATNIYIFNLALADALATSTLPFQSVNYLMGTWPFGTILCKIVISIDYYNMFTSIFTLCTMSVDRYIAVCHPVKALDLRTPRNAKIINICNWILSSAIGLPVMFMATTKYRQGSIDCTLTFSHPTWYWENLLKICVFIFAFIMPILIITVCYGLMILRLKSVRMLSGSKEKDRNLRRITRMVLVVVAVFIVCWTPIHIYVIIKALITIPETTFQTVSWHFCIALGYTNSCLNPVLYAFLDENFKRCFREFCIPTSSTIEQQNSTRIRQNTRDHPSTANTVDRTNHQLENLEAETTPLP
T1 sequence (F1N083 1-372): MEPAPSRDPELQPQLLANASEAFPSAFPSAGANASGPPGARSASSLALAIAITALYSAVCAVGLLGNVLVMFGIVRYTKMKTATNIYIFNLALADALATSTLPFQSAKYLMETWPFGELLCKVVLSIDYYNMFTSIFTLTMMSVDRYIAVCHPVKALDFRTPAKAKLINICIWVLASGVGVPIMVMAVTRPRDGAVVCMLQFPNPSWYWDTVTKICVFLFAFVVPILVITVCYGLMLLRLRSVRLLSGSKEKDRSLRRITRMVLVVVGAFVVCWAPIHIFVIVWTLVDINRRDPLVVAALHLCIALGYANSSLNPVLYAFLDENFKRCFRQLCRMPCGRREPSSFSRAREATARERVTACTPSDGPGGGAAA

| Compound | ED50 ([1]; Mus musculus, sc, subcutaneous, read-out: ED50) [µmol/kg] | ED50 ([1]; Mus musculus, intravenous, read-out: ED50) [µmol/kg] | Duration of the effect ([1]; intravenous) [min] | Duration of the effect ([1]; subcutaneous) [min] | effect on oxygen saturation (FIG. 5, B and C) [2] | oxygen level (SO2) [2] [%] | effect on O2 saturation (FIG. 5, A) [2] | ED50 ([1]; intravenous) [µmol/kg] | ED50 ([1]; subcutaneous) [µmol/kg] | Ki [3] [nM] | Ki [4] [nM] | Ki [5] [nM] | mortality (FIG. 5, C) ([2]; 10×ED50 dose, 60 min time point) | analgesic activity compared with morphine [6] | increase in passage into the brain (Kin) versus free M6G (FIG. 4) [7] |
| --- | --- | --- | --- | --- | --- | --- | --- | --- | --- | --- | --- | --- | --- | --- | --- |
| CN1CC[C@]23c4c5ccc(O)c4O[C@H]2[C@@H](O)C=C[C@H]3[C@H]1C5 [Compound 3, Morphine] | 11.6 | 15.4 | 60 | 90 | very significant decrease in the oxygen saturation | ~50 | small decrease in O2 saturation | – | – | – | – | – | – | – | – |
| CN1CC[C@]23c4c5ccc(O)c4O[C@H]2[C@@H](O[C@@H]2O[C@H](C(=O)O)[C@@H](O)[C@H](O)[C@H]2O)C=C[C@H]3[C@H]1C5 [Compound 1, morphine-6-glucuronide] | – | – | 90 | 150 | very significant decrease in the oxygen saturation | ~50 | no effect | >5.7 | 6.6 | 2.67 | 23 | 5.82 | caused the death of some animals | roughly the same analgesic activity | – |
| CC(C)C[C@H](NC(=O)[C@H](CCCNC(=N)N)NC(=O)[C@H](CCCNC(=N)N)NC(=O)CCSSCCNC(=O)[C@H]1O[C@@H](O[C@H]2C=C[C@H]3[C@H]4Cc5ccc(O)c6c5[C@@]3(CCN4C)[C@H]2O6)[C@H](O)[C@@H](O)[C@@H]1O)C(=O)N[C@@H](CO)C(=O)N[C@@H](Cc1ccc(O)cc1)C(=O)N[C@@H](CO)C(=O)N[C@@H](CCCNC(=N)N)C(=O)N[C@@H](CCCNC(=N)N)C(=O)N[C@@H](CCCNC(=N)N)C(=O)N[C@@H](Cc1ccccc1)C(=O)O [Compound 2] ([Mpa](X1)RRLSYSRRRF-OH; C-terminus assumed) | – | – | – | – | no notable decrease | – | no effect | – | – | – | 19 | 0.6 | – | – | approximately 100 fold |
